{
  "source": "patent US11649222B2",
  "about": "“Compounds” (UNIVERSITETET I OSLO, priority 2016, dated 2023)",
  "key": {"[1]": {"system": "strains producing Klebsiella pneumoniae carbapenemases (KPC)", "test": "Adjuvant activity with a carbapenem against KPC-producing strains", "assay_type": "cell-based"}, "K. pneumoniae (NDM)": {"system": "K. pneumoniae (NDM)", "test": "Microbroth dilution MIC of meropenem ± 25 mg/L inhibitor", "assay_type": "cell-based", "conditions": "K. pneumoniae NDM (several strains)", "experimental": "(§1) • Plate bacterial strain(s) on appropriate media: • Gram-negative bacteria with ESBLs or carbapenemases: green agar plates with 100 mg/L ampicillin • Gram-negative bacteria without β-lactamases: green agar plates • Gram-positive bacteria (Staphylococci and Enterococci): blood agar plates • Incubate o.n. at 37° C. Day 2: Prepare the Bacterial Inoculum: • Prepare a 0.5 McFarland suspension of bacteria in 0.85% NaCl. (Should be used within 15 min of preparation). • Dilute the 0.5 McFarland suspension 1:100 into MH broth. Check the inoculum by diluting the prepared bacterial suspension 1:100 (10 μl bacterial suspension+990 μl 0.85% NaCl). Plate 10 μl of the dilution on MH agar plates (×2). Incubate o.n. at 37° C., count the colonies and calculate the final CFU/ml inoculum in the plate by multiplying the average number of colonies with 10000 and divide by 2. The final inoculum should be between 3-7×10^5 CFU/ml. • Add 50 μl of the prepared bacterial suspension to each well in the microtiter plate except negative growth control. Preparation of Compounds/Antibiotics • Calculate the desired concentration-range and volume of the compounds/antibiotics in the assay. […] Dilute the stock solution in MH broth. Make subsequent 2-fold dilutions in MH broth of the desired concentrations if a concentration range is to be tested (remember the extra dilution factor in the assay plate). Always include extra volume for pipetting. Take into consideration stock solutions that are made in buffers that have an effect on bacterial growth (e.g. DMSO)."}, "E. coli (NDM)": {"system": "E. coli (NDM)", "test": "Microbroth dilution MIC of meropenem ± 25 mg/L inhibitor", "assay_type": "cell-based", "conditions": "E. coli NDM (several strains)", "experimental": "as §1"}, "K. pneumoniae K66-45": {"system": "K. pneumoniae K66-45", "assay_type": "cell-based", "experimental": "After plating and grown overnight at 37° C., only single colonies, ignoring any touching the edges of the plate, were counted.\n10^9 CFU K66-45 (Mueller-Hinton broth, no selection) was plated and grown overnight, 37° C. Only single colonies, ignoring any touching the edges of the plate, were counted."}, "[2]": {"system": "resistant gram-negative MBL-based bacteria", "test": "MICx: adjuvant concentration giving carbapenem MIC ≤ 2 mg/L", "assay_type": "cell-based", "conditions": "lowest concentration of compound X that results in a MIC value of ≤ 2 mg/L for carbapenem antibiotics", "in_short": "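Broth microdilution in MH broth; 0.5 McFarland suspension diluted 1:100 to a final inoculum of 3-7×10^5 CFU/ml. Compounds tested as 2-fold dilutions in MH broth. Carbapenemase/ESBL strains were pre-grown overnight at 37 °C on agar containing 100 mg/L ampicillin.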"}, "[3]": {"system": "P. aeruginosa K34-7 (VIM-2)", "test": "Microbroth dilution MIC of carbapenem with/without inhibitor", "assay_type": "cell-based", "conditions": "Example 26 25 mg/L", "in_short": "(§2)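 Broth microdilution in MH broth with 2-fold compound/antibiotic dilution series. Inoculum from a 0.5 McFarland suspension diluted 1:100, final 3-7×10^5 CFU/ml confirmed by colony count. Strains pre-grown overnight at 37° C, ampicillin 100 mg/L plates for ESBL/carbapenemase producers.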"}, "[4]": {"system": "K. pneumoniae K66-45 (NDM-1)", "test": "Microbroth dilution MIC of carbapenem with/without inhibitor", "assay_type": "cell-based", "in_short": "as §2"}, "VIM-2": {"molecular_target": "VIM-2 (Escherichia coli, UniProt Q5U7L7)", "assay_type": "biochemical", "experimental": "The eluent used was Chelex-treated HEPES 50 mM buffer, pH 7.5. […] In all experiments, 16 aliquots of 250 μL were taken from the PD-10 column runsout and enzyme activity was analysed. Enzyme activity was measured by adding Nitrocefin as a reporter substrate (final concentration of 50 μM).\nTo investigate if more extreme time-dependent and concentration-dependent conditions could restore enzyme activity, aliquots having final concentrations of 30 nM column-treated enzyme and 1000 μM Zn^2+ on ice and at room temperature over prolonged time."}, "[5]": {"system": "meropenem-resistant K. pneumonia and E. coli", "test": "Checkerboard MIC, all MDR isolates", "assay_type": "cell-based", "conditions": "for some of the strains", "experimental": "A checkerboard MIC assay was using the broth dilution method according to CLSI guidelines. […] Dilutions to 4 mg/ml was performed by adding+4.75 ml sterile saline to 0.25 ml of the stock solution, and dilutions to 512 μg/ml was performed by adding 10.9 ml MH-broth to the 4 mg/ml solution. Inoculums of bacterial strains as described in Table 4 were prepared by suspending fresh overnight colonies from 5% horse blood agar were to a turbidity of 0.5 McFarland and further diluted to 1×10^6 CFU/ml in MH-broth. Aliquots of 50 μl of MH-broth were added to each well of polystyrene microtiter plates. […] The plates were incubated at 35° C., 16-20 hours."}, "[6]": {"system": "P. aeruginosa 50692172 (NDM-1)", "test": "Microbroth dilution MIC of meropenem with/without inhibitor", "assay_type": "cell-based", "conditions": "inhibitor 25 mg/L", "in_short": "as §2"}, "[7]": {"system": "P. aeruginosa 50808021 (No MBL)", "test": "Microbroth dilution MIC of meropenem with/without inhibitor", "assay_type": "cell-based", "conditions": "inhibitor 25 mg/L", "in_short": "as §2"}, "[8]": {"system": "K. pneumoniae 50732159 (No MBL)", "test": "Microbroth dilution MIC of meropenem with/without inhibitor", "assay_type": "cell-based", "conditions": "inhibitor 25 mg/L", "in_short": "as §2"}, "E. coli K71-77 (NDM-1)": {"system": "E. coli K71-77 (NDM-1)", "test": "Microbroth dilution MIC of meropenem with/without inhibitor", "assay_type": "cell-based", "experimental": "as §1\n(§3) This experimental design was used for the results in Tables 2-6 below."}, "[9]": {"system": "K. pneumoniae A3-81 (VIM-1)", "test": "Microbroth dilution MIC of meropenem with/without inhibitor", "assay_type": "cell-based", "experimental": "as §1, §3"}, "E. coli 50639799 (VIM-1)": {"system": "E. coli 50639799 (VIM-1)", "test": "Microbroth dilution MIC of meropenem with/without inhibitor", "assay_type": "cell-based", "experimental": "as §1, §3"}},
  "note": "Several values for one entry are separate records, joined by “and”; a condition that tells them apart may be missing. Equal entries are not always repeated. Entries after “also recorded” stand apart in the source; their conditions may differ. Where two headings read alike, the source gives them in different places.",
  "data": [
    {"smiles": "CN(C[C@H](O)[C@@H](O)[C@H](O)[C@H](O)CO)C(=O)c1ccc(CN(Cc2ccccn2)Cc2ccccn2)nc1", "note": "[Example 26, 6-((bis(pyridin-2-ylmethyl)amino)methyl)-N-methyl-N-((2S,3R,4R,5R)-2,3,4,5,6-pentahydroxyhexyl)nicotinamide]", "values": [
      {"measurement": "adjuvant activity with a carbapenem against KPC-producing strains", "setting": "[1]", "value": "does not show activity"},
      {"measurement": "MIC meropenem + 25 mg/L Example 26", "setting": "K. pneumoniae (NDM)", "value": 0.06, "unit": "µg/mL"},
      {"measurement": "MIC meropenem + 25 mg/L Example 26", "setting": "E. coli (NDM)", "value": 0.125, "unit": "µg/mL"},
      {"measurement": "Resistance/mutant frequency (number of colonies)", "setting": "K. pneumoniae K66-45; Example 26 15 mg/L, 8 mg/L MEM", "value": "n.c."},
      {"measurement": "Resistance/mutant frequency (number of colonies)", "setting": "K. pneumoniae K66-45; Example 26 25 mg/L, 4 mg/L MEM", "value": "n.c."},
      {"measurement": "Resistance/mutant frequency (number of colonies)", "setting": "K. pneumoniae K66-45; Example 26 25 mg/L, 8 mg/L MEM", "value": "n.c."},
      {"measurement": "Resistance/mutant frequency (number of colonies)", "setting": "K. pneumoniae K66-45; Example 26 50 mg/L, 4 mg/L MEM", "value": "n.c."},
      {"measurement": "Resistance/mutant frequency (number of colonies)", "setting": "K. pneumoniae K66-45; Example 26 50 mg/L, 8 mg/L MEM", "value": "n.c."},
      {"measurement": "MICx", "setting": "[2]", "value": 31, "unit": "µM"},
      {"measurement": "MIC of doripenem (DOR) + Example 26", "setting": "[3]", "value": 1, "unit": "µg/mL"},
      {"measurement": "MIC of doripenem (DOR) + Example 26", "setting": "[4]; Example 26 25 mg/L, K. pneumoniae K66-45 NDM-1", "value": "0.25 mg/L and 0.125 mg/L (2×)"},
      {"measurement": "MIC", "setting": "[4]; Klebsiella pneumoniae, inhibitor 31.25 μM, 50 μM and 100 μM, K. pneumoniae K66-45, read-out: MIC of MEM in the presence of inhibitor", "value": 0.125, "unit": "µg/mL"},
      {"measurement": "MIC of meropenem", "setting": "[4]; inhibitor 31.25 μM, K. pneumoniae K66-45 NDM-1", "value": 0.125},
      {"measurement": "MIC of meropenem", "setting": "[4]; inhibitor 50 μM, K. pneumoniae K66-45 NDM-1", "value": 0.125},
      {"measurement": "enzyme activity restored", "setting": "VIM-2; 15 nM impaired enzyme spiked with ZnSO4 0-100 μM", "value": 40, "unit": "%"},
      {"measurement": "residual enzyme activity", "setting": "VIM-2; 50 nM VIM-2 + 140 mg/L Example 26, 1 hour on ice, PD-10 eluate fraction 5", "value": 33, "unit": "%"},
      {"measurement": "irreversibility of VIM-2 inhibition", "setting": "VIM-2; purified VIM-2, PD-10 column", "value": "irreversibly inhibits VIM-2; also recorded: irreversibly inhibited"},
      {"measurement": "amplification of the effect of meropenem", "setting": "[5]", "value": "> 1000", "unit": "times"},
      {"measurement": "Meropenem activity in presence of inhibitor", "setting": "[6]", "value": 4, "unit": "mg/L"},
      {"measurement": "Meropenem activity in presence of inhibitor", "setting": "[7]", "value": ">64", "unit": "mg/L"},
      {"measurement": "Meropenem activity in presence of inhibitor", "setting": "[8]", "value": 32, "unit": "mg/L"}
    ]},
    {"smiles": "C[C@@H](O)[C@H]1C(=O)N2C(C(=O)O)=C(S[C@@H]3CN[C@H](C(=O)N(C)C)C3)[C@H](C)[C@H]12", "note": "[meropenem, reference compound]", "values": [
      {"measurement": "Meropenem activity without inhibitor", "setting": "E. coli K71-77 (NDM-1)", "value": "1 to 8", "unit": "mg/L"},
      {"measurement": "Meropenem activity without inhibitor", "setting": "[9]", "value": "64 to 256", "unit": "mg/L"},
      {"measurement": "Meropenem activity without inhibitor", "setting": "E. coli 50639799 (VIM-1)", "value": "8 to 32", "unit": "mg/L"}
    ]}
  ]
}
